According to patent US20190292189A1, “LIM KINASE INHIBITORS” (VIRONGY, LLC, priority 2016, published 2019):
Where two headings read alike, the source gives them in different places.

What was measured:
[1] = molecular target: P450 3A4 (Homo sapiens, UniProt P08684); test: P450 inhibition at 10 μM; assay type: in vitro ADME
[2] = molecular target: ROCK-II (Homo sapiens, UniProt O75116); test: ROCK-II biochemical counter-screen
[3] = molecular target: T1, P450 1A2 (Homo sapiens, UniProt P05177)
T1 sequence (P05177 1-516): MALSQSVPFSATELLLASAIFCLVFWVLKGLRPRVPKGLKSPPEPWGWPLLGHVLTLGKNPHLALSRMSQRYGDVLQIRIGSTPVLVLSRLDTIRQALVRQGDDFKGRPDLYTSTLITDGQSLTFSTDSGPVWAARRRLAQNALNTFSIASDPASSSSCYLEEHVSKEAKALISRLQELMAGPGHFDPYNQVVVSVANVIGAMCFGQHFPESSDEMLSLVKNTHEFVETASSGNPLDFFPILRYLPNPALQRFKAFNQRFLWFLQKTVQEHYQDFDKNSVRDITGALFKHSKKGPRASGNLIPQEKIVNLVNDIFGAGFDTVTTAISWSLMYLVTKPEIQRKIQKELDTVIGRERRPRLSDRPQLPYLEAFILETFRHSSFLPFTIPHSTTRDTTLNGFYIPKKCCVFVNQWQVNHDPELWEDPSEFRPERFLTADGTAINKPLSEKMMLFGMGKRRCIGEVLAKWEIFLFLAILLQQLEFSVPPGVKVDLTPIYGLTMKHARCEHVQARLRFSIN

[4] = molecular target: P450 2C9 (Homo sapiens, UniProt P11712); test: P450 inhibition at 10 μM; assay type: in vitro ADME
Chain of P450 2C9 (P11712 whole entry): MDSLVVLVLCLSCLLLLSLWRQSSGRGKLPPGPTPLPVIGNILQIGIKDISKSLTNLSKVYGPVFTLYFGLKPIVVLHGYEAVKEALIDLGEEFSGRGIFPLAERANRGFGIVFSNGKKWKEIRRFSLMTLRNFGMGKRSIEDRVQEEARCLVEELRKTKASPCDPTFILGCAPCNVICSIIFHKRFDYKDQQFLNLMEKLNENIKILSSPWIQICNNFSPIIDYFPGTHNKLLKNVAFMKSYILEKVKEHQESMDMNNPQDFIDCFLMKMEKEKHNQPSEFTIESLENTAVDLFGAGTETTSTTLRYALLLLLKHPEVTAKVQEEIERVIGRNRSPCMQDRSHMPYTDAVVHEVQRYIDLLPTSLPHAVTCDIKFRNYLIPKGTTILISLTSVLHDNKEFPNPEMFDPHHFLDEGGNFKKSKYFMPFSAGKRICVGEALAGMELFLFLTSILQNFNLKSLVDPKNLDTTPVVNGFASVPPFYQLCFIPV

[5] = system: PC-3 cells; test: In vitro migration (wound closure) assay in PC-3 cells; assay type: cell-based; conditions: Homo sapiens, PC-3, 24 h, read-out: inhibition of migration of PC-3 cells
Description: PC3 cells were cultured to confluence at >90% in 6 well culture dishes in 10% FBS RPMI1640 media the day before the assay. Lines were drawn with a marker on the bottom of the dishes. Using a sterile 1 mL pipet tip, the dishes were scratched three separate wounds through the cells moving perpendicular to the line drawn in the step above. The cells were rinsed with PBS twice very gently and added the RPMI1640 media, and the dishes were taken pictures using phase contrast under Leica DMI3000B microscope.

[6] = system: PC-3 cells; test: In vitro invasion assay in PC-3 cells; assay type: cell-based; conditions: Homo sapiens, 48 hours, compared to the control
Description: Transwell chambers coated with GFR Matrigel (BD Biosciences) were used for measurement of cell invasion. The matrigel was solidified at 37° C. in a humidified incubator the day before the assay. PC3 cells (1×10^3 cells per well) were grown in serum-free RPMI1640 media in the upper side of the insert. The lower well was filled with RPMI 1640 supplemented with 10% FBS with a Limk inhibitor (1 μM). PC3 cells were incubated at 37° C. in a humidified atmosphere containing 5% CO2 for 48 h. Then transwell membrane was rinsed three times with PBS, and the cells were fixed in 2.5% EM grade glutaraldehyde for 15 min at room temperature (RT) with no shaking. After removing glutaraldehyde by aspirating, the cells were permeabilized with 0.5% Triton X-100 in PBS for 3 min at RT, and they were rinsed three times with PBS. Then, the cells were stained by Gill's hematoxylin No. 1 for 15 min at RT, and they were washed by distilled water for three times. To remove any residual stain, the cells were washed by acid alcohol for 3 minutes and then rinsed by distilled water twice. The cells were exposed with 0.04% NH4OH until a blue color is observed on the membrane and then rinsed by distilled water twice. The membranes were dried overnight, and the stained cells were visualized under Leica DMI3000B microscope.

[7] = molecular target: P450 2D6 (Homo sapiens, UniProt P10635); test: P450 inhibition at 10 μM; assay type: in vitro ADME
Chain of P450 2D6 (P10635 whole entry): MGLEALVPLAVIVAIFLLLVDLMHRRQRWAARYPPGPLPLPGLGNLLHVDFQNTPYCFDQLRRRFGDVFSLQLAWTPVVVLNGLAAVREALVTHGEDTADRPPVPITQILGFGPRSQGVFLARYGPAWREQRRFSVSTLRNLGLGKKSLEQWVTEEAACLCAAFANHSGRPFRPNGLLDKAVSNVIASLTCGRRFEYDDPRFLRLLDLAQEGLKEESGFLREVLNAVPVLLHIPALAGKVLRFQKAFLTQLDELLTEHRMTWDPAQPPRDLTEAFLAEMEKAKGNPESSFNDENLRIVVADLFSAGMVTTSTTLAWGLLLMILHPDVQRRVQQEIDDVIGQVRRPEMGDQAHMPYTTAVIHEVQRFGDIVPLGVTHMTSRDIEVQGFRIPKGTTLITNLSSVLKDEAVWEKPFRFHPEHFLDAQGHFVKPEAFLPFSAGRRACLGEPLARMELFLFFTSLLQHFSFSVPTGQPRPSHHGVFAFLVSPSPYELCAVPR

[8] = Microsomal stability, rat liver microsomes; assay type: in vitro ADME
[9] = Plasma pharmacokinetics studies on rats; conditions: for F (%) (po): po dosing 2 mg/kg; for Cmax: read-out: Cmax (iv)
Description: In vivo pharmacokinetics (PK) studies were conducted for selected compounds during the whole optimization at various stages in order to identify structural elements that are favorable for in vivo applications, and/or to evaluate the feasibility of optimized Limk inhibitors for animal studies.

[10] = system: cofilin phosphorylation in A7r5 cells; test: In-cell Western assay of cofilin phosphorylation in A7r5 cells; assay type: cell-based
Description: A7r5 (15,000 cells/well) were plated in a clear-bottomed Packard View black 96-well plate in 100 μl of 10% FBS DMEM:F12 medium and were allowed to attach overnight. The next day, the cells were serum starved in 1% FBS DMEM medium for 2 hr and then treated with the compounds for 1 hr. […] Next day, they were washed twice with PBS-0.1% Tween 20 (PBST) washing solution for 5 min each at room temperature on the orbital shaker, followed by one wash with Licor Blocking Buffer containing 0.05% Tween-20 for 5 min on the shaker at RT. The cells were then incubated with secondary antibody goat anti-rabbit IR800 (1:500 dilution) for 1 hr at RT in the dark (covered the plate with foil) in Licor blocking buffer-containing Tween-20. Following this, cells were washed twice with PBST for 5 min each at room temperature and then once with Licor blocking buffer-containing 0.05% Tween-20. The wells were then incubated with ToPro 3 stain (nucleic acid staining), diluted 1:4000 in Licor blocking buffer or Licor blocking buffer with 0.05% Tween-20 for 30 min at room temperature in the dark. Finally the plates were washed twice with PBS and analyzed using the Odyssey LICOR Infrared Scanner.

[11] = molecular target: ROCK-I (Homo sapiens, UniProt Q13464); test: ROCK-I biochemical counter-screen; conditions: Table 6; read-out: Biochemical Inhibition IC50 (nM) ROCK-I
Chain of ROCK-I (Q13464 whole entry, species assumed): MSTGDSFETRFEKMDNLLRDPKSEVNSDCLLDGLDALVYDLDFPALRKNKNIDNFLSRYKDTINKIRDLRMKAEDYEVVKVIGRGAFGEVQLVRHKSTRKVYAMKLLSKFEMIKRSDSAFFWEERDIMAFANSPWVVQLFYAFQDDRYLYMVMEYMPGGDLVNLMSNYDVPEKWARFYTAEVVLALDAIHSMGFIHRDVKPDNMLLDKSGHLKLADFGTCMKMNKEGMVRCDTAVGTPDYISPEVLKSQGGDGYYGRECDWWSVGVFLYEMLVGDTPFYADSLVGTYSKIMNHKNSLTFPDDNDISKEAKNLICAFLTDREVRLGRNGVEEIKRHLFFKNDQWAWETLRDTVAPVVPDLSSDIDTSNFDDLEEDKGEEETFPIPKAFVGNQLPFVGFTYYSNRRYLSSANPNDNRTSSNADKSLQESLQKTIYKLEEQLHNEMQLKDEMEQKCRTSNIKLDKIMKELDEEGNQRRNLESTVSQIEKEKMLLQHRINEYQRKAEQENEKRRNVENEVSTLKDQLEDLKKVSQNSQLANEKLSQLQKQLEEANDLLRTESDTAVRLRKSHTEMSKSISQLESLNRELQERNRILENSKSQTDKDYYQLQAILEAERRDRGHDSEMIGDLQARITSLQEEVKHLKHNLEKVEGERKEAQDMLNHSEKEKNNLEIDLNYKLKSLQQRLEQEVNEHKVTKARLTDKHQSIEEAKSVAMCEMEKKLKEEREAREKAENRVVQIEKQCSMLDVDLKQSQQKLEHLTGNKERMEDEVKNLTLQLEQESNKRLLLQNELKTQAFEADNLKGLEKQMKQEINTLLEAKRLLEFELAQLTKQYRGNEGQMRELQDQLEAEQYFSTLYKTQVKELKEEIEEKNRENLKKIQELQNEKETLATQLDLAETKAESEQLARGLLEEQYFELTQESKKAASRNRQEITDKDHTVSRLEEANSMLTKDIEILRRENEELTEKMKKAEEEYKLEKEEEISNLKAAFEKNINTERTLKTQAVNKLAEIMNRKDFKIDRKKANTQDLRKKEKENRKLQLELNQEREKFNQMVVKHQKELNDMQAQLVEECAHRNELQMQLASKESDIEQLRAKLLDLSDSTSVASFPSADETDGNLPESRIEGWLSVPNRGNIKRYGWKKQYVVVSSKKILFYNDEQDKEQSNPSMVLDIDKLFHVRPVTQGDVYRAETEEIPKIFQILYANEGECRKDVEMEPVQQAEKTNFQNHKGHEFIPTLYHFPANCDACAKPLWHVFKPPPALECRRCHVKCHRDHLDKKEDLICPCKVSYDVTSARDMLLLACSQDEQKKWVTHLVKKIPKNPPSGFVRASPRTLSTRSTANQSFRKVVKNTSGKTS

[12] = molecular target: Limk1 (Homo sapiens, UniProt P53667); test: Limk1 biochemical assay (Reaction Biology, 10-dose IC50); design: His; purchased Reaction Biology Corporation; host or cells: insect cells
Chain of Limk1 (P53667 285-638): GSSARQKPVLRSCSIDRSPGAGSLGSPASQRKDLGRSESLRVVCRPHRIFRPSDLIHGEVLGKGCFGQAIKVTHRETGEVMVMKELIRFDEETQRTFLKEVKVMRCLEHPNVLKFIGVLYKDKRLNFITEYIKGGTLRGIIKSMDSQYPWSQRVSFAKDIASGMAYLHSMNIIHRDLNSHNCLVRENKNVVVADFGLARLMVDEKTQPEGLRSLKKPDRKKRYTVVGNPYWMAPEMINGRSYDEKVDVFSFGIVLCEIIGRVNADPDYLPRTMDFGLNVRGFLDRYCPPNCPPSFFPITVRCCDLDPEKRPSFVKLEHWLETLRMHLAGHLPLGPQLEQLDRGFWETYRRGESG

[13] = Microsomal stability, human liver microsomes; assay type: in vitro ADME
[14] = molecular target: JNK3 (Homo sapiens, UniProt P53779); test: JNK3 biochemical counter-screen; conditions: Table 6; read-out: Biochemical Inhibition IC50 (nM) JNK3
Chain of JNK3 (P53779 whole entry, species assumed): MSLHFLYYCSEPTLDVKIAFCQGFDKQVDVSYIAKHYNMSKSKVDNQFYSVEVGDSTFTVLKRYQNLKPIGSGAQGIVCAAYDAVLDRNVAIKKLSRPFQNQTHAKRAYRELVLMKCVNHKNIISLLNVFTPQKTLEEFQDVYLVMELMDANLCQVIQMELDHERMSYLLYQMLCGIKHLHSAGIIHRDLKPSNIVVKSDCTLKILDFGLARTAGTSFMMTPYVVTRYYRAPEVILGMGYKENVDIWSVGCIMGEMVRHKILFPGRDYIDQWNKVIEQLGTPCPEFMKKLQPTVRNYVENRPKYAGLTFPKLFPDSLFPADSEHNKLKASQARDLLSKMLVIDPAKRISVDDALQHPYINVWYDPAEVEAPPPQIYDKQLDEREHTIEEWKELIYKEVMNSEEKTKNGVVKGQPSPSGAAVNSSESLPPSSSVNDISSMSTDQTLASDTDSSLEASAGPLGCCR

[15] = system: p-cofilin in CEM-SS T cells; test: Cofilin phosphorylation cell assay in CEM-SS T cell lines; assay type: cell-based; conditions: Homo sapiens
Description: Cells were lysed in NuPAGE LDS Sample Buffer (Invitrogen) followed by sonication. Samples were heated at 90° C. for 10 minutes, separated by SDS-PAGE, and then transferred onto nitrocellulose membranes (Invitrogen). The membranes were washed in TBST for 3 minutes and then blocked for 30 minutes at room temperature with Starting Block blocking buffer (Pierce). […] The blots were washed three times for 15 minutes and scanned with Odyssey Infrared Imager (Li-cor Biosciences). The same blots were also stripped and reprobed with antibodies against GAPDH (Abcam) as a loading control.

[16] = Table 4, means of ≥2 experiments, read-out: IC50 (nM) ROCK-II
[17] = A7R5, read-out: Cofilin Phosphorylation In A7r5 Cells (IC50, nM)
[18] = Table 4, means of ≥2 experiments, read-out: IC50 (nM) Limk1
[19] = A7R5, A7r5 cells, read-out: Cofilin Phosphorylation In A7r5 Cells (IC50)

Chain of P450 3A4 (P08684 whole entry): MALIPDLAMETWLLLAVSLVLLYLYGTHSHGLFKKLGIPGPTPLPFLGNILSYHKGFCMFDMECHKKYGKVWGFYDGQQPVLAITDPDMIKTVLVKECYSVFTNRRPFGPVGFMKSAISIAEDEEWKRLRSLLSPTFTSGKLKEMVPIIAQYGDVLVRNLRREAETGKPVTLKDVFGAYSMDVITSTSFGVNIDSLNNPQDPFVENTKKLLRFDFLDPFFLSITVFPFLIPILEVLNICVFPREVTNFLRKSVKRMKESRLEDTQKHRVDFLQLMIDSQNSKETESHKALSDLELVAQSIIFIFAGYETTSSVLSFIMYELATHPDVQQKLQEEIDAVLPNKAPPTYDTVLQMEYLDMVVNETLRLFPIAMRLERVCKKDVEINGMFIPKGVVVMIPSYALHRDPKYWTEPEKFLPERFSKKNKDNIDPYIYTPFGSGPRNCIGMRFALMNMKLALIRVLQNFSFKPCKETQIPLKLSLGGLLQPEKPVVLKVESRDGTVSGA
Chain of ROCK-II (O75116 whole entry, species assumed): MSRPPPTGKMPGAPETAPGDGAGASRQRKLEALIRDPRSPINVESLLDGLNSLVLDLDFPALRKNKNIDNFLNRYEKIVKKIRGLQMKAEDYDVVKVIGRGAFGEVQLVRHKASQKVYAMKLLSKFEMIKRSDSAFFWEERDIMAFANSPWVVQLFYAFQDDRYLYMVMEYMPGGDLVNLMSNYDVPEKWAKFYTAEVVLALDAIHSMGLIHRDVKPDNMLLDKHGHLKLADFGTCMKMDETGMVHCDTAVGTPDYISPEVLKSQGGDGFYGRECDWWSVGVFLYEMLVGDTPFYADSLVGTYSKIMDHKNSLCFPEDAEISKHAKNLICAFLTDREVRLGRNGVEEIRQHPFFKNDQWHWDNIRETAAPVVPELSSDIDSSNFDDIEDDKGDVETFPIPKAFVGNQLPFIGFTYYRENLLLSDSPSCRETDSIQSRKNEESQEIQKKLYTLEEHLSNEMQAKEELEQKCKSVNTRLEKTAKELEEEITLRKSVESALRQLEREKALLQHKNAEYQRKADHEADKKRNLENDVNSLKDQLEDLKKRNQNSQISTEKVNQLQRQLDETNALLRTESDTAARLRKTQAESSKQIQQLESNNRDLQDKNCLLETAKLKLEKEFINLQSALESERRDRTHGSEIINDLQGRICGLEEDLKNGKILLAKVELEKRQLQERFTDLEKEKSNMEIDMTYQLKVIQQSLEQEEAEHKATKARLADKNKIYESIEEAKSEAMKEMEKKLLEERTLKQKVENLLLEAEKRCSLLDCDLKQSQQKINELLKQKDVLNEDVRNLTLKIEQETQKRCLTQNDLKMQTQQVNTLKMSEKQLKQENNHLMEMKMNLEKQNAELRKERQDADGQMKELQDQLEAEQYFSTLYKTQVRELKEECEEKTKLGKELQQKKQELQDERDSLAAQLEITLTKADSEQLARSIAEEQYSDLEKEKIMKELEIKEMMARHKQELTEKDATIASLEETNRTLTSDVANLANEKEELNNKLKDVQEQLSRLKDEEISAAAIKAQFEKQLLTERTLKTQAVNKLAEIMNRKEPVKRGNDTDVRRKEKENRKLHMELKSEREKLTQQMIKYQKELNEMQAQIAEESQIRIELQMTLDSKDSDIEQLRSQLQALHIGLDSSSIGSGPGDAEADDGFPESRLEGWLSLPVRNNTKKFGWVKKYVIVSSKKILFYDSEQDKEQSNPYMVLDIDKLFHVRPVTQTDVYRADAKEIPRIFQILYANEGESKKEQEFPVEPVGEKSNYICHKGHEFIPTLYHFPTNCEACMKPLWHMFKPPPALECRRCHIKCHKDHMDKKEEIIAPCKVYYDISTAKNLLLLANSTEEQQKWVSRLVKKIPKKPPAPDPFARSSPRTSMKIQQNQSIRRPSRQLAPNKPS

Cc1c[nH]c2ncnc(-c3ccc(NC(=O)N(CCO)c4ccccc4Cl)cc3)c12 [Compound 18f, 1-(2-Chlorophenyl)-1-(2-hydroxyethyl)-3-(4-(5-methyl-7H-pyrrolo[2,3-d]pyrimidin-4-yl)phenyl)urea]
P450 % inh. at 10 μM 3A4 [1]: 37% | IC50 [2, 16]: 3340 nM | P450 % inh. at 10 μM 1A2 [3]: −4/39/1/37% | P450 % inh. at 10 μM 2C9 [4]: 39% | inhibition at 0.1 µM [5]: 13% | inhibition at 1 µM [5]: 76.1% | inhibition at 10 µM [5]: 81% | inhibition at 1 µM [6]: 83% | P450 % inh. at 10 μM 2D6 [7]: 1% | Microsomal Stability t1/2 (min) Rat [8]: 38 min | T1/2 (iv) ([9]; rat, in vivo, iv, 1 mg/kg): 1.5 h | Yd (iv) ([9]; rat, in vivo, iv, 1 mg/kg): 0.7 L/kg | AUC (iv) ([9]; rats, iv dosing 1 mg/kg): 5.1 µM·h | Cl (iv) ([9]; rats, iv dosing 1 mg/kg): 7.7 mL/min/kg | F (%) (po) ([9]; rats): 21% | Cmax ([9]; rats, iv dosing 1 mg/kg): 4.7 µM | IC50 [10, 17]: 420 nM | IC50 [11]: 4390 nM | IC50 [12, 18]: 58 nM

Cc1c[nH]c2ncnc(-c3ccc(NC(=O)N(CCO)c4cccc(Cl)c4)cc3)c12 [Compound 18g, 1-(3-Chlorophenyl)-1-(2-hydroxyethyl)-3-(4-(5-methyl-7H-pyrrolo[2,3-d]pyrimidin-4-yl)phenyl)urea]
P450 % inh. at 10 μM 3A4 [1]: 42% | IC50 [2, 16]: 11300 nM | P450 % inh. at 10 μM 1A2 [3]: −19/31/2/42% | P450 % inh. at 10 μM 2C9 [4]: 31% | P450 % inh. at 10 μM 2D6 [7]: 2% | Microsomal Stability t1/2 (min) Rat [8]: 20 min | IC50 [10, 17]: 372 nM | IC50 [11]: 15000 nM | IC50 [12, 18]: 67 nM

Cc1c[nH]c2ncnc(-c3ccc(NC(=O)N(CCO)c4ccc(Cl)cc4)cc3)c12 [Compound 18h, 1-(4-Chlorophenyl)-1-(2-hydroxyethyl)-3-(4-(5-methyl-7H-pyrrolo[2,3-d]pyrimidin-4-yl)phenyl)urea]
Microsomal Stability t1/2 (min) Human [13]: >120 min | P450 % inh. at 10 μM 3A4 [1]: 27% | IC50 [2, 16]: 4360 nM | P450 % inh. at 10 μM 2C9 [4]: 23% | Microsomal Stability t1/2 (min) Rat ([8]; rat liver microsomes): 73 min | AUC (iv) ([9]; rats, iv dosing 1 mg/kg): 13.2 µM·h | Cl (iv) ([9]; rats, iv dosing 1 mg/kg): 3.0 mL/min/kg | T1/2 (iv) ([9]; rats, iv dosing 1 mg/kg): 2.6 h | Cmax ([9]; rats, iv dosing 1 mg/kg): 10.5 µM | IC50 [10, 19]: ~100 nM | IC50 [11]: 5920 nM | IC50 [14]: > 10000 nM

Cc1c[nH]c2ncnc(-c3ccc(NC(=O)N(CCN)c4ccc(Cl)cc4)cc3)c12 [Compound 18p, 1-(2-Aminoethyl)-1-(4-chlorophenyl)-3-(4-(5-methyl-7H-pyrrolo[2,3-d]pyrimidin-4-yl)phenyl)urea]
IC50 [2, 16]: 460 nM | AUC (iv) ([9]; rats, iv dosing 1 mg/kg): 0.7 µM·h | Cl (iv) ([9]; rats, iv dosing 1 mg/kg): 55.9 mL/min/kg | T1/2 (iv) ([9]; rats, iv dosing 1 mg/kg): 5.1 h | Cmax ([9]; rats, iv dosing 1 mg/kg): 1.1 µM | inhibition at 1 µM [15]: > 50%

Cc1c[nH]c2ncnc(-c3ccc(NC(=O)N(CCN(C)C)c4ccc(Cl)cc4)cc3)c12 [Compound 18r, 1-(4-Chlorophenyl)-1-(2-(dimethylamino)ethyl)-3-(4-(5-methyl-7H-pyrrolo[2,3-d]pyrimidin-4-yl)phenyl)urea]
IC50 [2, 16]: > 10000 nM | IC50 ([2]; read-out: ROCK-II IC50): > 10000 nM | AUC (iv) ([9]; rats, iv dosing 1 mg/kg): 0.6 µM·h | Cl (iv) ([9]; rats, iv dosing 1 mg/kg): 42.2 mL/min/kg | T1/2 (iv) ([9]; rats, iv dosing 1 mg/kg): 6.1 h | Yd (iv) ([9]; rats, iv dosing 1 mg/kg): 17.1 L/kg | F (%) (po) ([9]; rats): 0% | Cmax ([9]; rats, iv dosing 1 mg/kg): 0.2 µM | inhibition at 1 µM [15]: > 50% | IC50 [12, 18]: 20 nM | IC50 ([12]; read-out: Limk1 IC50): ~20 nM

COCCN(C(=O)Nc1ccc(-c2ncnc3[nH]c(C)c(C)c23)cc1F)c1ccc(Cl)cc1 [Compound 18x, 1-(4-Chlorophenyl)-3-(4-(5,6-dimethyl-7H-pyrrolo[2,3-d]pyrimidin-4-yl)-2-fluorophenyl)-1-(2-methoxyethyl)urea]
P450 % inh. at 10 μM 3A4 [1]: 52% | IC50 ([2]; Table 5, means of ≥2 experiments, read-out: Biochemical IC50 (nM) ROCK-II): > 20000 nM | IC50 ([2]; read-out: ROCK-II IC50): > 20000 nM | P450 % inh. at 10 μM 1A2 ([3]; 10 μM): 23% | P450 % inh. at 10 μM 2C9 [4]: 50% | P450 % inh. at 10 μM 2D6 [7]: 15% | Microsomal Stability t1/2 (min) Rat ([8]; rat liver microsomes): 13 min | AUC (iv) ([9]; rats, iv dosing 1 mg/kg): 5.1 µM·h | Cl (iv) ([9]; rats, iv dosing 1 mg/kg): 6.9 mL/min/kg | T1/2 (iv) ([9]; rats, iv dosing 1 mg/kg): 3.4 h | Yd (iv) ([9]; rats, iv dosing 1 mg/kg): 1.2 L/kg | Cmax ([9]; rats, iv dosing 1 mg/kg): 3.5 µM | IC50 [10, 19]: 250 nM | inhibition at 1 µM [15]: > 50% | IC50 [14]: > 10000 nM | IC50 ([12]; Table 5, means of ≥2 experiments, read-out: Biochemical IC50 (nM) Limk1): 8 nM
